According to US9284325B2, “Spectinamides as anti-tuberculosis agents” (UNIVERSITY OF TENNESSEE RESEARCH FOUNDATION, priority 2009, dated 2016):
Counter-ions that a name gives are not always drawn.

Legend:
[1] = tested on: Strep. pyogenes ATCC 700294; assay: MIC determination by microbroth dilution; type: cell-based, Streptococcus pyogenes; conditions: Streptococcus pyogenes, ATCC700294, read-out: MIC S. pyogenes
[2] = tested on: Burkholderia cepacia ATCC 25416; assay: MIC determination by microbroth dilution; type: cell-based; conditions: ATCC25416, read-out: MIC B. cepcia
[3] = tested on: Proteus mirabilis ATCC 25933; assay: MIC determination by microbroth dilution; type: cell-based; conditions: ATCC25933
in vivo = assay: in vivo; set-up: species or system rats; conditions: male, Sprague-Dawley, rat, iv
Method: Pharmacokinetic Studies: Catheterized male Sprague-Dawley rats (jugular vein alone for oral study and jugular vein and femoral vein for intravenous study) weighing approximately 225 g were obtained from Harlan Bioscience (Indianapolis, Ind., United States of America). The animals were kept on a 12 hr light/dark cycle with food and water available ad libitum. Groups of rats (n=4) received either an intravenous (IV) or oral dose of a test compound at a dose level of 10 mg/kg or 100 mg/kg, respectively. For oral administration, the animals were fasted overnight and until 4 hr after administration of test compound. Serial blood samples (approx. 250 μL) were collected pre-dose and at predetermined time points post-dose until 48 hours. Plasma was separated immediately by centrifugation (10,000 rpm for 10 min at 4° C.) and stored at −80° C. until analysis. Urine specimens were collected for a period of 48 hours following drug administration. The study protocol was approved by the institutional animal care and use committee of the University of Tennessee Health Science Center (Memphis, Tenn., United States of America).
Sample Preparation and LC-MS/MS Assay: A calibration curve ranging from 7.81-1000 μg/L was constructed for each test compound by spiking the test compound into 50 μL of blank plasma. […] Plasma proteins were precipitated by the addition of four volumes of ice cold methanol containing IS. These samples were vortexed and kept on ice for 20 minutes. Following this, the samples were centrifuged at 10,000 rpm for 10 minutes at 4° C. and the supernatants were diluted if necessary and injected onto LC-MS/MS for analysis. Chromatographic separations were carried out using a Shimadzu liquid chromatograph (Shimadzu Corporation, Kyoto, Japan) consisting of two pumps, online degasser, system controller and a CTC Leap auto sampler (Leap Technologies, Carrboro, N.C., United States of America). A gradient of methanol and 10 mM ammonium acetate at pH 3.5 was used at a flow rate of 0.4 mL/min. A Phenomenex® Luna 3μ HILIC, 100×4.6 mm column (Phenomenex, Torrance, Calif., United States of America) protected with a guard column was used for the separation. 10 μL of sample was injected onto the column and the eluate was led directly into an API 3000 triple-quadrupole mass spectrometer (Applied Biosystems ABI/MDS-Sciex, Foster City, Calif., United States of America) equipped with an electrospray ion source. The instrument was operated in the positive ion mode with nebulizer gas (NEB) at 7 psi, curtain gas (CUR) at 8 psi, collision gas (CAD) at 10 psi, ion spray voltage (IS) at +4000 V and temperature (TEM) at 500° C. The resulting multiple reaction monitoring chromatograms were used for quantification using Analyst software version 1.4.1 (Applied Biosystems ABI/MDS-Sciex, Foster City, Calif., United States of America).
Pharmacokinetic Data Analysis: Plasma concentration-time data for oral dose were analyzed by non-compartmental analysis. A two compartment open model with bolus input and first order output was used to analyze the IV plasma concentration-time data. The area under the plasma concentration-time curve from time 0 to infinity (AUCinf) was calculated by the trapezoidal rule with extrapolation to time infinity. Mean residence time (MRT), the average amount of time a particle remains in a compartment of system was calculated for IV dose using MRT=AUMCinf/AUCinf where AUMCinf is the area under the moment curve when the concentration-time curve is extrapolated to infinity. The systemic clearance (CL) was calculated using the equation CL=Doseiv/AUCinf iv, where Doseiv and AUCinf, iv are the IV dose and corresponding area under the plasma concentration-time curve from time 0 to infinity, respectively. An estimate of volume of distribution at steady state (Vss) was obtained from IV data using Vss=MRT*CL. […]

In the case of CN[C@@H]1[C@H](O)[C@H](NC)C2O[C@]3(O)C(OC2[C@H]1O)O[C@H](C)C[C@H]3NC(=O)Cc1ccccn1 (stereo partly drawn) [Compound 1329, 3′-Dihydro-3′-deoxy-4(R)-(pyridin-2yl)acetylamino spectinomycin Dihydrochloride], the MIC [1] was 50 µg/mL, the MIC [2] was > 200 µg/mL and the MIC [3] was > 200 µg/mL. For the same compound, the clearance (in vivo) was 13.3 mL/min/kg, the “dose eliminated unchanged in the first 6 hours” value (in vivo) was “approx. 40%” and the “excretion ratio (renal clearance to glomerular filtration rate)” value (in vivo) was 1.7. The “fraction of dose excreted unchanged by the kidneys” value (in vivo) was 0.46, the hepatic extraction ratio (in vivo) was 0.13 and the MRT (in vivo; 10 mg/kg) was ~5.3 h.
